The numbers were not newly measured in patent publication US7005448B2, “Aminoalkyl-benzofuran-5-ol compounds for the treatment of glaucoma” (priority 2001, dated 2006), which cites them from elsewhere.

One series relates to rabbit eye. Particulars: for intraocular pressure in the anterior chamber of the eye: topically applied to the rabbit eye [Meyer-Bothling et al. 1993].
A further series deals with 5-HT2A receptor (Homo sapiens, UniProt P28223).
The test system of the next series is animals. Particulars: in vivo.
Setting [1] is: intracamerally [Krootila et al. 1987].

Where two headings read alike, the source gives them in different places.

Chain of 5-HT2A receptor (P28223 whole entry): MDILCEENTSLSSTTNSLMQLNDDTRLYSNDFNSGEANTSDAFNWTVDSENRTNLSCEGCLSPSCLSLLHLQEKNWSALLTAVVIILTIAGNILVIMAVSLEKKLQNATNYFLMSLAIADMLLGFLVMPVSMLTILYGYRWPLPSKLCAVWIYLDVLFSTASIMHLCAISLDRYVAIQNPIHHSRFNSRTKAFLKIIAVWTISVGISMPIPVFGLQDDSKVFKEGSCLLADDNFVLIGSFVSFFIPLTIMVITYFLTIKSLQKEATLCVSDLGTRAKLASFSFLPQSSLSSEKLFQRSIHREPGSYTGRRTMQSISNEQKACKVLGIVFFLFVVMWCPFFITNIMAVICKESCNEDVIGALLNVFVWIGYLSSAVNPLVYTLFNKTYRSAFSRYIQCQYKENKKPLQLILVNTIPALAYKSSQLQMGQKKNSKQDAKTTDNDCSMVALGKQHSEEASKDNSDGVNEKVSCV

With `COc1ccccc1N1CCN(CCCNc2c(C)c(=O)n(C)c(=O)n2C)CC1` [5-methylurapidil], the IOP result with glaucomatous monkeys was “lowered IOP”. The “α1 receptor antagonist activity” value with α1 receptor was “relatively potent α1 receptor antagonists”. `CCCN(CCC)C1CCc2cccc(O)c2C1` (stereo not shown) [8-hydroxy DPAT]: the IOP entry in the series with rabbit eye (rabbits) is reported as “lower IOP”. Turning to `NCCc1c[nH]c2ccc(C(N)=O)cc12` [Compound 5-CT, 5-carboxamidotryptainine], the “intraocular pressure in the anterior chamber of the eye” value in the series with rabbit eye was “raise intraocular pressure”. For the compound `NCCc1c[nH]c2ccc(O)cc12` [Compound 5-HT, 5-hydroxy tryptamine], in the series with rabbit eye (setting [1]), the IOP result was “raised IOP” and the blood-aqueous barrier entry is recorded as “breakdown of the blood-aqueous barrier”. The IOP entry in the series on rabbit eye (topically applied [Krootila et al. 1987]) is given as “lowers IOP”. The “intraocular pressure in the anterior chamber of the eye” value with rabbit eye is recorded as “raise intraocular pressure”.

For `O=C(c1ccc(F)cc1)C1CCN(CCn2c(=O)[nH]c3ccccc3c2=O)CC1` [Ketanserin], the IOP result with rabbit eye (rabbits) and with human subjects (man) was “lowers IOP” in each case. For the same compound, in the series on α1 receptor, the “α1 receptor antagonist activity” value was “significant α1 antagonist activity”.

For the compound `c1ccc2c(c1)OC[C@H](CNCCCOc1ccc3c(c1)OCO3)O2` [MKC-242], the IOP entry in the series with rabbit eye (rabbits) is listed as “lower IOP”. Besides, the “α1 receptor antagonist activity” value with α1 receptor was “relatively potent α1 receptor antagonists”.

On to `CC[C@@H](CO)NC(=O)[C@@H]1C=C2c3cccc4c3c(cn4C)C[C@H]2N(C)C1` [Methysergide], for which the IOP entry in the series on rabbit eye (rabbits) is “lowered IOP”. Take `COc1cccc(CCc2ccccc2OCC(CN(C)C)OC(=O)CCC(=O)O)c1` (stereo not shown) [Saprogrelate]: the IOP result with rabbit eye (rabbits, dosed topically or orally) is “lowers IOP”; in the series with human subjects (man, dosed topically or orally), “lowers IOP”. `CC(N)Cc1c2ccoc2c(Br)c2ccoc12` (stereo not shown) [The Nichols compound]: at 5-HT2A receptor, the “affinity for the 5-HT2A receptor” value is listed as “high affinity”. Further, the “generalization to LSD in drug discrimination studies” value with animals was “generalize to LSD”. As for `CNCCC(Oc1ccc(C(F)(F)F)cc1)c1ccccc1` (stereo not shown) [fluoxetine], the IOP entry in the series on human subjects (human subjects, oral administration) is listed as “raises IOP”.
